The values below come from patent US12528774B2, “Thiosemicarbazone compounds and uses thereof” (The Regents of the University of California, priority 2019, dated 2026).

Broadly, the IC90 is the concentration needed for an effect of 90%.

Data set [1] concerns panel of PDAC, SCLC, and PC cancer models. In words: Proliferation assay (CellTiter-Glo) in panel of PDAC, SCLC and PC cancer models. In kind it is cell-based, human and mouse. To be noted: media with 20 μM CuCl2, 72 h. The source says: (§1) FIG. 1A: IC50 values in a panel of human and mouse prostate cancer (PC)(cell lines CF-2, LNCaP, 22Rv1, RM-1, MyC CaP); small cell lung carcinoma (SCLC)(cell lines NCI-H1963, NCI-H146, NCI-H526); pancreatic ductal adenocarcinoma (PDAC)(CFPAC1, SW1990, HS766T, PANC0203, PANC0813, ASPC1, HPAFII, PATU8902, PANC0327, PANC1, YAPC, L36PL, XWR200, HUPT4, A13A, SUIT2, DAN-G, BxPC3, HPAC, PSN1, SU8686, KP4662, MIAPACA2, PATU8988T); and leukemia (cell lines KG-1, TF-1, Jurkat, MOLT-4, p185-R, MV4-11) models treated with HCT13+Cu(II) (20 μM) for 72 h measured by CellTiterGlo. […] (mean±SD, n=2, one-way ANOVA corrected for multiple comparisons by Bonferroni adjustment, * P<0.05; **P<0.01; ***P<0.001).
Serum copper levels are elevated (>20 μM) in individuals with solid tumor types such as pancreatic ductal adenocarcinoma (PDAC), small cell lung carcinoma (SCLC), and prostate cancer (PC). (Refs. 43-48). These cancers rely upon elevated copper levels to sustain growth, making this transition metal a viable target for therapeutic modulation. (Ref 34). […]
Proliferation assay: Cells were plated in 384-well plates (500 cells/well for adherent cell lines in 30 μl volume). […] Following 72 h incubation, ATP content was measured using CellTiter-Glo reagent according to manufacturer's instructions (Promega, CellTiter-Glo Luminescent Cell Viability Assay), and analyzed by SpectraMax luminometer (Molecular Devices). […]
(Cellular ATP, detected with luciferase, serves as a proxy for viable cell number.)

For data set [2], the system named is MIAPACA2 PDAC cells. In words: Intracellular copper measurement by ICP-MS. In kind it is cell-based, human. To be noted: HCT13 25 nM, 24 h, with and without 20 μM Cu(II).
From the text: as §1
The MIAPACA2 cell line, a well-characterized PDAC model that was highly sensitive to HCT13 treatment, was used to further investigate the mechanism of action of our lead compound. MIAPACA2 proliferation was measured in response to HCT13 in the presence and absence of 20 μM CuCl2 (Cu(II)), as well as in response to 20 μM Cu(II) alone (FIG. 1B). […] To probe whether HCT13 was acting as an ionophore, intracellular copper levels were measured using inductively coupled plasma mass spectrometry (ICP-MS). […]
Intracellular Cu(II) measurement. […] The concentration of Cu(II) was measured using Inductive Coupled Plasma Mass Spectrometry (ICP-MS) using standard procedure.

A short description of data set [3]: HCT-13 stock solution (solubilization). To be noted: aqueous with cosolvent or surfactant or cyclodextrin; aqueous 40% captisol with 1% DMSO, heating 50° C., sonication 15 minutes; read-out: concentration solubilized. In kind it is physicochemical. The method, then: HCT-13 stock solution. HCT-13 was solubilized up to a concentration of 20 mg/mL in an aqueous solution of 40% captisol with 1% DMSO with the aid of heating at 50° C. and sonication for 15 minutes.

For data set [4], the system named is MIAPACA2 cells. In words: Proliferation assay (CellTiter-Glo, 72 h) in MIAPACA2 cells. In kind it is cell-based, human.

Structures are written as SMILES. Where only a bound is given, the exact number is not on record here.

Regarding `CN(C)C(=S)N/N=C/c1nccc2cc(F)ccc12` (mixture of isomers) [HCT13, (E)-2-((6-Fluoroisoquinolin-1-yl)methylene)-N,N-dimethylhydrazine-1-carbothioamide and (Z)-2-((6-Fluoroisoquinolin-1-yl)methylene)-N,N-dimethylhydrazine-1-carbothioamide], the “+Cu IC90 range across panel” value in data set [1] is “nanomolar”. Besides, in data set [1] (read-out: +Cu IC90 range across panel), the IC90 is 1 to 200 nM. In addition, in data set [2], the intracellular copper levels result is “increased”. The solubility at 15 min in data set [3] is at most 20 mg/mL. Besides, in data set [4] (Fe(II) 20 μM), the “antiproliferative potency with Fe(II) supplementation” value is “diminished but still active”. For the same compound, in data set [4] (Zn(II) 20 μM), the “antiproliferative potency with Zn(II) supplementation” value is “largely inactive”.
